Test results as given in patent US20100063047A1 (KALYPSYS, INC., priority 2008, published 2010).

How the values were obtained:
human H1 = molecular target: T1, human H1 (Homo sapiens, UniProt P35367); experiment: In vitro histamine H1 receptor cell-based aequorin bioluminescence antagonist assay; settings: CHO-K1 cells expressing human H1 and aequorin; histamine at EC80; read-out: H1 Antagonist EC50
T1 construct: host or cells: CHO-K1, also expressing mitochondrion-targeted aequorin
Summary of the method: (§1)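 CHO-K1 cells stably expressing human H1 or H4 plus mitochondrial aequorin (H4 also with Gα16), loaded with 5 μM coelenterazine-h for 4 h at ~21 °C. Compounds preincubated 15 min at room temperature, then histamine at EC80 added.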

[1] = test system: tissue eosinophil peroxidase (EPO); experiment: Allergic conjunctivitis in passively sensitized guinea pigs, conjunctival EPO activity; assay type: in vivo; parameters: key: a test compound was assigned a “+” if a 0.01% bid dose was statistically equivalent to dexamethasone with respect to reduction of EPO activity; a “−” was assigned if the compound was statistically inferior to dexamethasone and not different than vehicle; settings: reduction of conjunctival EPO activity 24 h after ovalbumin challenge, compared with 0.1% w/v dexamethasone, guinea pig; for BID activity: 0.01% bid topical dose (1 hour prior to and 8 hours after challenge); for QD activity: ≦0.1% qd topical dose (1 hour prior to challenge)
Experimental: (§2) Allergic Conjunctivitis in Passively Sensitized Guinea Pigs
Male Hartley VAF outbred guinea pigs were passively sensitized to ovalbumin by a single OD subconjunctival injection of undiluted guinea pig anti-ovalbumin antiserum 24 hours before OD topical challenge with 500 μg ovalbumin in saline. Control animals were injected with saline only and challenged with ovalbumin. To determine acute phase drug efficacy, 30 min after challenge animals were clinically scored by a masked observer for severity of signs of conjunctivitis based on a standard scale. Test compounds were administered topically 1 hour prior to challenge (QD protocol), or 1 hour prior to challenge and again 8 hours after challenge (BID protocol). Twenty-four hours after challenge, animals were euthanized and conjunctivae were harvested for determination of tissue eosinophil peroxidase (EPO) concentration as a marker of allergic inflammation. Homogenates of freshly collected tissues were prepared by shaking the tissues in 2 mL round-bottom tubes containing 0.5 mL of homogenization buffer (50 mM Tris HCl, pH 8.0, 6 mM KBr) and one 5-mm stainless steel bead on a Qiagen TissueLyser at 30 Hz for 5 min. Homogenates were frozen and thawed once, then centrifuged at 10,000 rpm for 5 min. EPO activity in supernatants was measured by reacting diluted homogenates with a solution of 6 mM o-phenylenediamine substrate and 8.8 mM H2O2 in homogenization buffer for 3 min. The reaction was stopped with 4M H2SO4 and absorbances were measured at 490 nm on a spectrophotometric plate reader. Total EPO in samples was calculated from a standard curve of recombinant human EPO in each assay. EPO activity was normalized to total protein concentration (Pierce BCA assay) in supernatants. Background EPO activity was determined from the unsensitized, antigen-challenged control group. Percent inhibition was calculated from the sensitized, antigen-challenged, vehicle-treated control group in each experiment. Ovalbumin-injected animals dosed topically with 0.1% w/v dexamethasone (dex) served as positive control. Groups were compared by ANOVA with Dunnett's or Tukey's post-hoc tests where appropriate with significance assigned at the 95% confidence level.
The table below summarizes the results.

[2] = test system: tissue eosinophil peroxidase (EPO); experiment: as above; assay type: in vivo; parameters: key: a test compound was assigned a “+” if a ≦0.1% qd dose was statistically equivalent to dexamethasone with respect to reduction of EPO activity; a “−” was assigned if the compound was statistically inferior to dexamethasone and not different than vehicle; settings: ≦0.1% qd topical dose (1 hour prior to challenge); reduction of conjunctival EPO activity 24 h after ovalbumin challenge, compared with 0.1% w/v dexamethasone; guinea pig
Experimental: as §2
Male Hartley VAF outbred guinea pigs were passively sensitized to ovalbumin by a single OD subconjunctival injection of undiluted guinea pig anti-ovalbumin antiserum 24 hours before OD topical challenge with 500 μg ovalbumin in saline. Control animals were injected with saline only and challenged with ovalbumin. To determine acute phase drug efficacy, 30 min after challenge animals were clinically scored by a masked observer for severity of signs of conjunctivitis based on a standard scale. Test compounds were administered topically 1 hour prior to challenge (QD protocol), or 1 hour prior to challenge and again 8 hours after challenge (BID protocol). […] EPO activity in supernatants was measured by reacting diluted homogenates with a solution of 6 mM o-phenylenediamine substrate and 8.8 mM H2O2 in homogenization buffer for 3 min. The reaction was stopped with 4M H2SO4 and absorbances were measured at 490 nm on a spectrophotometric plate reader. Total EPO in samples was calculated from a standard curve of recombinant human EPO in each assay. […] Background EPO activity was determined from the unsensitized, antigen-challenged control group. Percent inhibition was calculated from the sensitized, antigen-challenged, vehicle-treated control group in each experiment. […]

human H4 = molecular target: T2, human H4 (Homo sapiens, UniProt Q9H3N8); experiment: In vitro histamine H4 receptor cell-based aequorin bioluminescence antagonist assay; settings: CHO-K1 cells expressing human H4, aequorin and Gα16; histamine at EC80
T2 construct: host or cells: CHO-K1, also expressing mitochondrion-targeted aequorin and human Gα16
T2 sequence (Q9H3N8 whole entry): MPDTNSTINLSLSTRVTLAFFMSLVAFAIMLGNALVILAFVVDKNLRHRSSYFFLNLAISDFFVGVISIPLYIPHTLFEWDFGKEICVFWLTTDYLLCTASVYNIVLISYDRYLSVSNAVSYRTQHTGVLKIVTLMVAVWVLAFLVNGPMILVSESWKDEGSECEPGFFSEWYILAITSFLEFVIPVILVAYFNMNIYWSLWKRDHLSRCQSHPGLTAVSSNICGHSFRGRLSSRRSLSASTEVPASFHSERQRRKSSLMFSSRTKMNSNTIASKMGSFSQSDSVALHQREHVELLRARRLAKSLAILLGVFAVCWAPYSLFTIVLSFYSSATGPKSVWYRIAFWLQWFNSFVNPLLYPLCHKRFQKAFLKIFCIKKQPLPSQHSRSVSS
Summary of the method: as §1

T1 sequence (P35367 whole entry): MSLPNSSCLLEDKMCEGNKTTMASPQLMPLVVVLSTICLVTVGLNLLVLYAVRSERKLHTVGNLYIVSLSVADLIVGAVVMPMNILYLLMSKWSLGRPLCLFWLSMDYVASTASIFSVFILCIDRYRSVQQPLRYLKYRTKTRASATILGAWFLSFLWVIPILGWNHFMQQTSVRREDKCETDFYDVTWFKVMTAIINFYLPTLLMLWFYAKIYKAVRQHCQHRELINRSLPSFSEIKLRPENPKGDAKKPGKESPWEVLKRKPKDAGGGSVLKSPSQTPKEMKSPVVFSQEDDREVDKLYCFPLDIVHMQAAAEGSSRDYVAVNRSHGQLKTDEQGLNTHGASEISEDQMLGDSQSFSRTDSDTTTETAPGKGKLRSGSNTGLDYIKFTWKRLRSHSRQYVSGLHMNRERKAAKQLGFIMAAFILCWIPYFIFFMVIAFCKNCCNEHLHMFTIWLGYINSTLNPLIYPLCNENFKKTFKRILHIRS

Row | Structure (SMILES) | EC50 (human H1) [µM] | BID activity [1] | QD activity [2] | EC50 (human H4) [µM] | QD activity [1]
1 | Cc1sc2ncnc(NCCc3ccccc3Cl)c2c1C [Example 43, N-[2-(2-chlorophenyl)ethyl]-5,6-dimethylthieno[2,3-d]pyrimidin-4-amine] | > 10 | − |  |  | 
2 | Cc1csc2ncnc(NC3Cc4ccccc4C3)c12 [Example 29, N-(2,3-dihydro-1H-inden-2-yl)-5-methylthieno[2,3-d]pyrimidin-4-amine] | > 10 |  | + |  | 
3 | Cc1csc2ncnc(NCc3ccccn3)c12 [Example 85, 5-methyl-N-(pyridin-2-ylmethyl)thieno[2,3-d]pyrimidin-4-amine] | > 10 |  | + | > 10 | 
4 | Clc1ccc(CCNc2ncnc3sccc23)cc1 [Example 45, N-[2-(4-chlorophenyl)ethyl]thieno[2,3-d]pyrimidin-4-amine] | > 10 | + |  |  | −
5 | Clc1ccc(CCNc2nccc3sccc23)cc1 [Example 27, N-(4-chlorophenethyl)thieno[3,2-c]pyridin-4-amine] | > 10 | + |  | > 10 | −
6 | Cc1csc2ncnc(N(C)CCC#N)c12 [Example 184, 3-[methyl({5-methylthieno[2,3-d]pyrimidin-4-yl})amino]propanenitrile] | > 10 |  |  | > 10 | 
7 | Cc1cnc(CNc2ncnc3scc(C)c23)cn1 [Example 101, 5-methyl-N-[(5-methylpyrazin-2-yl)methyl]thieno[2,3-d]pyrimidin-4-amine] | > 10 |  |  | > 10 | 
8 | Cc1csc2ncnc(N(C)CC(O)c3ccccc3)c12 (stereo not drawn) [Example 227, 2-[methyl({5-methylthieno[2,3-d]pyrimidin-4-yl})amino]-1-phenylethan-1-ol] | > 10 |  |  | > 10 | 
9 | Cc1csc2ncnc(N3CCSCC3)c12 [Example 197, 4-{5-methylthieno[2,3-d]pyrimidin-4-yl}thiomorpholine] | > 10 |  |  | > 10 | 
10 | Cc1csc2ncnc(N3C[C@@H](C)N[C@@H](C)C3)c12 [Example 203, (3R,5S)-3,5-dimethyl-1-{5-methylthieno[2,3-d]pyrimidin-4-yl}piperazine] | > 10 |  |  | > 10 | 
